Data reported in patent publication US20080176255A1, “Mold detection composition and methods” (priority 2007, published 2008).
Where a name gives a salt, the structure may show the parent alone.

Assay: Solubility in distilled water
Assay type: physicochemical
Source text: In one embodiment, the compositions described herein may further comprise a solvent; a gelling agent; and a diluent.

SMILES: O=S(=O)(O)c1ccccc1C=Cc1ccc(-c2ccc(C=Cc3ccccc3S(=O)(=O)O)cc2)cc1 [BBD, 2,2′-([1,1′-Biphenyl]-4,4′-diyldi-2,1-ethenediyl)bis-benzenesulfonic acid disodium salt]
- solubility (at 25° C.): 25 mg/mL
- solubility (at 95° C.): 300 mg/mL
